In patent US8541445B2, “Pyrazolopyridines” (Vertex Pharmaceuticals Incorporated, priority 2009, dated 2013):
pKi: −log10 of the molar value.

Experiments:
Assay type in all cases: biochemical
[1] = target: PKC theta kinase (Homo sapiens, UniProt Q04759); experiment: PKC theta kinase inhibition, coupled-enzyme NADH absorbance assay; conditions: 18 nM PKC theta kinase, 240 μM ATP, 30° C.
Experimental: An assay buffer solution was prepared which consisted of 100 mM HEPES (pH 7.5), 10 mM MgCl2, 25 mM NaCl, 0.1 mM EDTA and 0.01% Brij. An enzyme buffer containing reagents to final assay concentrations of 0.00001% Triton X-100, 200 μg/mL Phosphatidylserine, 20 μg/mL Diacylglycerol, 360 μM NADH, 3 mM phosphoenolpyruvate, 70 μg/mL pyruvate kinase, 24 μg/mL lactate dehydrogenase, 2 mM DTT, 100 μM substrate peptide (ERMRPRKRQGSVRRRV SEQ ID NO. 1) and 18 nM PKC theta kinase was prepared in assay buffer. To 60 μL of this enzyme buffer, in a 384 well plate, was added 2 μL of VRT stock solution in DMSO. The mixture was allowed to equilibrate for 10 mins at 30° C. The enzyme reaction was initiated by the addition of 5 μL stock ATP solution prepared in assay buffer to a final assay concentration of 240 μM. Initial rate data was determined from the rate of change of absorbance at 340 nm (corresponding to stoichiometric consumption of NADH) using a Molecular Devices Spectramax plate reader (Sunnyvale, Calif.) over 15 mins at 30° C. For each Ki determination 12 data points covering the VRT concentration range of 0-20 μM were obtained in duplicate (DMSO stocks were prepared from an initial 10 mM VRT stock with subsequent 1:2 serial dilutions). Ki values were calculated from initial rate data by non-linear regression using the Prism software package (Prism 4.0a, Graphpad Software, San Diego, Calif.).

[2] = target: PKC delta kinase (Homo sapiens, UniProt Q05655); experiment: PKC delta kinase inhibition, coupled-enzyme NADH absorbance assay; conditions: 46 nM PKC delta kinase, 150 μM ATP, 30° C.
PKC delta kinase, sequence (Q05655 whole entry): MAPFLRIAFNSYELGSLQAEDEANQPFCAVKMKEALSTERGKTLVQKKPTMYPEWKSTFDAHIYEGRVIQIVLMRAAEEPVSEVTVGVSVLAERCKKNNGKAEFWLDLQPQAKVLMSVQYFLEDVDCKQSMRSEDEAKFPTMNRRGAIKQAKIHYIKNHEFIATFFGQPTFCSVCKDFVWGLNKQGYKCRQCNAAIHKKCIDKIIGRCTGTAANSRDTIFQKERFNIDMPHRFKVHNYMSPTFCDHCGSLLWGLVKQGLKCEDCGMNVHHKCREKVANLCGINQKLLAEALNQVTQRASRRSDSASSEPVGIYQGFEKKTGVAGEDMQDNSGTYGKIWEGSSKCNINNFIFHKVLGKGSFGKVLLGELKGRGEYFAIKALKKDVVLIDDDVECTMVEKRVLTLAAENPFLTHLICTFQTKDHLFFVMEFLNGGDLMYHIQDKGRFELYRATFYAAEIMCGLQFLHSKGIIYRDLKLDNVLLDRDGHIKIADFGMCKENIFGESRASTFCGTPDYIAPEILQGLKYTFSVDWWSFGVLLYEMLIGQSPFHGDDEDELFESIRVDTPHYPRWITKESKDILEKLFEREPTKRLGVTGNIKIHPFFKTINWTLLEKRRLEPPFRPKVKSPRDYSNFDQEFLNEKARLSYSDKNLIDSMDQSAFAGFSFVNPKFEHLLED
Experimental: An assay buffer solution was prepared which consisted of 100 mM HEPES (pH 7.5), 10 mM MgCl2, 25 mM NaCl, 0.1 mM EDTA and 0.01% Brij. An enzyme buffer containing reagents to final assay concentrations of 0.002% Triton X-100, 200 μg/mL Phosphatidylserine, 20 μg/mL Diacylglycerol, 360 μM NADH, 3 mM phosphoenolpyruvate, 70 μg/mL pyruvate kinase, 24 μg/mL lactate dehydrogenase, 2 mM DTT, 150 μM substrate peptide (ERMRPRKRQGSVRRRV SEQ ID NO. 2) and 46 nM PKC delta kinase was prepared in assay buffer. To 16 μL of this enzyme buffer, in a 384 well plate, was added 1 μL of VRT stock solution in DMSO. The mixture was allowed to equilibrate for 10 mins at 30° C. The enzyme reaction was initiated by the addition of 16 μL stock ATP solution prepared in assay buffer to a final assay concentration of 150 μM. Initial rate data was determined from the rate of change of absorbance at 340 nm (corresponding to stoichiometric consumption of NADH) using a Molecular Devices Spectramax plate reader (Sunnyvale, Calif.) over 15 mins at 30° C. For each Ki determination 12 data points covering the VRT concentration range of 0-20 μM were obtained in duplicate (DMSO stocks were prepared from an initial 10 mM VRT stock with subsequent 1:2 serial dilutions). Ki values were calculated from initial rate data by non-linear regression using the Prism software package (Prism 4.0a, Graphpad Software, San Diego, Calif.).

[3] = target: PKC alpha kinase (Homo sapiens, UniProt P17252); experiment: PKC alpha kinase inhibition, coupled-enzyme NADH absorbance assay; conditions: 4.5 nM PKC alpha kinase, 130 μM ATP, 100 μM CaCl2, 30° C.
Experimental: An assay buffer solution was prepared which consisted of 100 mM HEPES (pH 7.5), 10 mM MgCl2, 25 mM NaCl, 0.1 mM EDTA, 100 μM CaCl2 and 0.01% Brij. An enzyme buffer containing reagents to final assay concentrations of 0.002% Triton X-100, 100 μg/mL Phosphatidylserine, 20 μg/mL Diacylglycerol, 360 μM NADH, 3 mM phosphoenolpyruvate, […], 24 μg/mL lactate dehydrogenase, 2 mM DTT, 150 μM substrate peptide (RRRRRKGSFKRKA SEQ ID NO. 3) and 4.5 nM PKC alpha kinase was prepared in assay buffer. To 16 μL of this enzyme buffer, in a 384 well plate, was added 1 μL of VRT stock solution in DMSO. The mixture was allowed to equilibrate for 10 mins at 30° C. The enzyme reaction was initiated by the addition of 16 μL stock ATP solution prepared in assay buffer to a final assay concentration of 130 μM. Initial rate data was determined from the rate of change of absorbance at 340 nm (corresponding to stoichiometric consumption of NADH) using a Molecular Devices Spectramax plate reader (Sunnyvale, Calif.) over 15 mins at 30° C. For each Ki determination 12 data points covering the VRT concentration range of 0-20 μM were obtained in duplicate (DMSO stocks were prepared from an initial 10 mM VRT stock with subsequent 1:2 serial dilutions). Ki values were calculated from initial rate data by non-linear regression using the Prism software package (Prism 4.0a, Graphpad Software, San Diego, Calif.).

PKC theta kinase, sequence (Q04759 whole entry): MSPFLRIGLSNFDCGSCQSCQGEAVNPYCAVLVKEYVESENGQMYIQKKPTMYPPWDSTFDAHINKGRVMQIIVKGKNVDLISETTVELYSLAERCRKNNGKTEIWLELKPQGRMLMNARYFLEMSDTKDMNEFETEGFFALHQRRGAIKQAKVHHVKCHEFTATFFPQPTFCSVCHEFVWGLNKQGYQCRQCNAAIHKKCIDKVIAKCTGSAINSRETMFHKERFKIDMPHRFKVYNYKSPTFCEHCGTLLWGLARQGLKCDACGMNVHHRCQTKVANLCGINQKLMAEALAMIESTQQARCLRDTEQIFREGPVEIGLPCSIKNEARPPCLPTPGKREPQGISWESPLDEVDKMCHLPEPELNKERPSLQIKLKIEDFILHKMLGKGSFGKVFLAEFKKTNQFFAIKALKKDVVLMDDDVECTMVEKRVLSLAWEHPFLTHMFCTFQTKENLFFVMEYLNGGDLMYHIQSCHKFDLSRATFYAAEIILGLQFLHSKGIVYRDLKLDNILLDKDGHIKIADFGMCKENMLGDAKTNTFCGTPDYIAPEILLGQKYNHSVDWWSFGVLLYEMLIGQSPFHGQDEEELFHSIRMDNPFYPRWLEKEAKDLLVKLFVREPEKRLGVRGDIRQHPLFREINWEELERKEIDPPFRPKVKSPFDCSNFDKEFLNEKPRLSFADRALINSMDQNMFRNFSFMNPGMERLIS

SMILES | pKi [1] | pKi [2] | pKi [3]
CCC(C)(C#N)c1csc(-c2ccnc3[nH]nc(Cl)c23)n1 (stereo not drawn) [Compound 8] | > 7.30 | > 6.30 | > 5.55
CCC(C)(CN)c1csc(-c2ccnc3[nH]ncc23)n1 (stereo not drawn) [Compound 10] | > 7.30 | > 6.30 | > 5.55
CC1(CN)CCCc2sc(-c3ccnc4[nH]ncc34)nc21 (stereo not drawn) [Compound 12, (4-methyl-2-(1H-pyrazolo[3,4-b]pyridin-4-yl)-4,5,6,7-tetrahydrobenzo[d]thiazol-4-yl)methanamine] | > 6.30 | > 5.55 | < 5.90
N#CCc1csc(-c2ccnc3[nH]ncc23)n1 [Compound 1, 2-(2-(1H-pyrazolo[3,4-b]pyridin-4-yl)thiazol-4-yl)ethanenitrile] | > 6.30 | > 5.55 | < 5.90
CCC(CN)n1cc(-c2ccnc3[nH]ncc23)cn1 (stereo not drawn) [Compound 17, 2-(4-(1H-pyrazolo[3,4-b]pyridin-4-yl)-1H-pyrazol-1-yl)butan-1-amine] | > 5.55 | > 5.55 | < 5.90
CCC(C#N)(CC)c1csc(-c2ccnc3[nH]ncc23)n1 [Compound 7] | > 7.30 | > 6.30 | > 6.30
CC(C)(C#N)c1csc(-c2ccnc3[nH]ncc23)n1 [Compound 2, 2-(2-(1H-pyrazolo[3,4-b]pyridin-4-yl)thiazol-4-yl)-2-methyl propanenitrile] | > 7.30 | > 6.30 | > 5.55
CCC(C#N)c1csc(-c2ccnc3[nH]ncc23)n1 (stereo not drawn) [Compound 5] | > 7.30 | > 6.30 | > 6.30
CCC(C)(CN)c1csc(-c2ccnc3[nH]nc(Cl)c23)n1 (stereo not drawn) [Compound 11] | > 7.30 | > 7.30 | > 6.30
NCCn1cc(-c2ccnc3[nH]ncc23)cn1 [Compound 16] | > 6.30 | > 5.55 | < 5.90
CCC(CN)c1csc(-c2ccnc3[nH]ncc23)n1 (stereo not drawn) [Compound 9] | > 7.30 | > 6.30 | < 5.90
CC(C)(CN)c1csc(-c2ccnc3[nH]ncc23)n1 [Compound 3, 2-(2-(1H-pyrazolo[3,4-b]pyridin-4-yl)thiazol-4-yl)-2-methylpropan-1-amine] | > 7.30 | > 6.30 | > 5.55
CCC(C)(CN)c1csc(-c2ccnc3[nH]ncc23)c1 (stereo not drawn) [Compound 13, 2-(5-(1H-pyrazolo[3,4-b]pyridin-4-yl)thiophen-3-yl)-2-methylbutan-1-amine] | > 7.30 | > 6.30 | > 6.30
CCC(C)(C#N)c1csc(-c2ccnc3[nH]ncc23)n1 (stereo not drawn) [Compound 6] | > 7.30 | > 6.30 | > 5.55
Cc1sc(-c2ccnc3[nH]ncc23)nc1C(C)(C)CN [Compound 4, 2-methyl-2-(5-methyl-2-(1H-pyrazolo[3,4-b]pyridin-4-yl)thiazol-4-yl)propan-1-amine] | > 6.30 | > 6.30 | > 5.55
CCC(C#N)n1cc(-c2ccnc3[nH]ncc23)cn1 (stereo not drawn) [Compound 15, 2-(4-(1H-pyrazolo[3,4-b]pyridin-4-yl)-1H-pyrazol-1-yl)butanenitrile] | > 6.30 | > 5.55 | < 5.90
CCC(C)(CN)c1ccsc1-c1ccnc2[nH]ncc12 (stereo not drawn) [Compound 14] | > 6.30 | < 5.70 | < 5.90
